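1) Cells in 96-well plates. 2) Compound, 48 h, 5 concentrations. 3) Linear interpolation between surrounding doses. 4) Unreached endpoint = highest concentration. Abbreviation: GI50, concentration required for 50% inhibition of growth.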 Active and inactive are the calls of the source. Cut-off read from the data, not from the text of the source: active = GI50 up to about 1.1 µM and inactive = higher.
Tests used:
Assay in all cases: growth of human tumour cells (NCI), 48 h
CAKI-1 = test system: CAKI-1
MDA-MB-435 = test system: MDA-MB-435
A549 = test system: A549
HL-60 = test system: HL-60
SK-OV-3 = test system: SK-OV-3
NCI/ADR-RES = test system: NCI/ADR-RES
HT-29 = test system: HT-29
NCI-H226 = test system: NCI-H226
KM12 = test system: KM12
HCT-15 = test system: HCT-15
BT-549 = test system: BT-549
IGROV-1 = test system: IGROV-1
PC-3 = test system: PC-3
HOP-62 = test system: HOP-62
Malme-3M = test system: Malme-3M
SK-MEL-28 = test system: SK-MEL-28
UACC-257 = test system: UACC-257
NCI-H522 = test system: NCI-H522
Hs-578T = test system: Hs-578T
EKVX = test system: EKVX

Compound	GI50 (CAKI-1)	GI50 (MDA-MB-435)	GI50 (A549)	GI50 (HL-60)	GI50 (SK-OV-3)	GI50 (NCI/ADR-RES)	GI50 (HT-29)	GI50 (NCI-H226)	GI50 (KM12)	GI50 (HCT-15)	GI50 (BT-549)	GI50 (IGROV-1)	GI50 (PC-3)	GI50 (HOP-62)	GI50 (Malme-3M)	GI50 (SK-MEL-28)	GI50 (UACC-257)	GI50 (NCI-H522)	GI50 (Hs-578T)	GI50 (EKVX)
O=[N+]([O-])c1ccccc1OCCOc1ccccc1[N+](=O)[O-]	> 100 µM (inactive)	> 100 µM (inactive)	> 100 µM (inactive)	> 100 µM (inactive)	> 100 µM (inactive)	> 100 µM (inactive)	> 100 µM (inactive)	> 100 µM (inactive)	> 100 µM (inactive)	> 100 µM	> 100 µM (inactive)	> 100 µM (inactive)	> 100 µM (inactive)	> 100 µM (inactive)	> 100 µM (inactive)	> 100 µM (inactive)	> 100 µM (inactive)	> 100 µM (inactive)	> 100 µM (inactive)	> 100 µM (inactive)
O=C1C=C(Nc2nc(O)cc(C(=O)O)n2)c2ccccc2C1=O	> 100 µM (inactive)	37.8 µM (inactive)	> 100 µM (inactive)	> 100 µM (inactive)	> 100 µM (inactive)	> 100 µM (inactive)	> 100 µM (inactive)	> 100 µM (inactive)	> 100 µM (inactive)	> 100 µM	> 100 µM (inactive)	> 100 µM (inactive)	> 100 µM (inactive)	> 100 µM (inactive)	> 100 µM (inactive)	> 100 µM (inactive)	> 100 µM (inactive)	> 100 µM (inactive)	> 100 µM (inactive)	> 100 µM (inactive)
O=[N+]([O-])c1cc2ccc(N(CCO)CCO)nc2nc1N(CCO)CCO	> 100 µM (inactive)	> 100 µM (inactive)	> 100 µM (inactive)	> 100 µM (inactive)	> 100 µM (inactive)	> 100 µM (inactive)	> 100 µM (inactive)	> 100 µM (inactive)	> 100 µM (inactive)	> 100 µM	> 100 µM (inactive)	> 100 µM (inactive)	> 100 µM (inactive)	> 100 µM (inactive)	> 100 µM (inactive)	> 100 µM (inactive)	> 100 µM (inactive)	> 100 µM (inactive)	> 100 µM (inactive)	> 100 µM (inactive)
Cc1[nH]nc(C(=O)N/N=C/c2cccs2)c1/N=N\N(C)C	5.78 µM (inactive)	23.9 µM (inactive)	10.5 µM (inactive)	1.99 µM (inactive)	19.8 µM (inactive)	21.1 µM (inactive)	3.31 µM (inactive)	23.1 µM (inactive)	24.1 µM (inactive)	13.7 µM	11.9 µM (inactive)	11.1 µM (inactive)	20.1 µM (inactive)	17 µM (inactive)	21.4 µM (inactive)		26.7 µM (inactive)	11.2 µM (inactive)	34.5 µM (inactive)	39.4 µM (inactive)
CC(C)=CCC[C@@H](C)c1c2nc3ccccc3sc-2c(C)c(=O)c1O	2.82 µM (inactive)	10.6 µM (inactive)	5.62 µM (inactive)	1.51 µM (inactive)	7.74 µM (inactive)	2.05 µM (inactive)	2.79 µM (inactive)	3.74 µM (inactive)	4.6 µM (inactive)	2.32 µM	31 µM (inactive)	3.44 µM (inactive)	8.34 µM (inactive)	4.36 µM (inactive)	2.93 µM (inactive)	14.6 µM (inactive)	14.3 µM (inactive)	1.82 µM (inactive)	9.66 µM (inactive)	7.62 µM (inactive)
CO/N=C1\CCC2(O)C3Cc4ccc(O)c5c4C2(CCN3CC2CC2)[C@H]1O5 (some centres not stated)	> 100 µM (inactive)	> 100 µM (inactive)	> 100 µM (inactive)	> 100 µM (inactive)	> 100 µM (inactive)	> 100 µM (inactive)	> 100 µM (inactive)	> 100 µM (inactive)	> 100 µM (inactive)	> 100 µM	> 100 µM (inactive)	> 100 µM (inactive)	> 100 µM (inactive)	> 100 µM (inactive)	> 100 µM (inactive)	> 100 µM (inactive)		> 100 µM (inactive)	> 100 µM (inactive)	> 100 µM (inactive)
C[C@H](CCC1=NCCN1)[C@H]1CC[C@H]2[C@@H]3[C@H](O)C[C@@H]4C[C@H](O)CC[C@]4(C)[C@H]3CC[C@]12C	24 µM (inactive)	13.7 µM (inactive)		> 10 µM (inactive)	19.1 µM (inactive)	28.8 µM (inactive)	2.54 µM (inactive)	15 µM (inactive)	14.6 µM (inactive)	16.5 µM	12.3 µM (inactive)	11.7 µM (inactive)	8.85 µM (inactive)	16.1 µM (inactive)	15.6 µM (inactive)	14.2 µM (inactive)	15 µM (inactive)	14.7 µM (inactive)	12.4 µM (inactive)	17.9 µM (inactive)
CCC1=CC2Cc3nc4cc(Cl)ccc4c(N)c3C(C1)C2 (configuration not stated)	2.26 µM (inactive)	2.94 µM (inactive)	7.59 µM (inactive)	2.29 µM (inactive)	12.1 µM (inactive)	8.3 µM (inactive)	3.02 µM (inactive)	1.48 µM (inactive)	5.78 µM (inactive)	7.21 µM	15.5 µM (inactive)	2.72 µM (inactive)	4.47 µM (inactive)	8.2 µM (inactive)	4.55 µM (inactive)	2.86 µM (inactive)	2.11 µM (inactive)	7.5 µM (inactive)	5.08 µM (inactive)	3.18 µM (inactive)
CC(=O)OCC1OC(c2c(OC(C)=O)cc(C)c3c(=O)cc(/C(C(C)=O)=C(\C)O)oc23)C(OC(C)=O)C(OC(C)=O)C1OC(C)=O (configuration not stated)	> 100 µM (inactive)	> 100 µM (inactive)	> 100 µM (inactive)	> 100 µM (inactive)	> 100 µM (inactive)	> 100 µM (inactive)	> 100 µM (inactive)	> 100 µM (inactive)	> 100 µM (inactive)	> 100 µM	> 100 µM (inactive)	> 100 µM (inactive)	> 100 µM (inactive)	> 100 µM (inactive)	> 100 µM (inactive)	> 100 µM (inactive)	> 100 µM (inactive)	> 100 µM (inactive)	84.9 µM (inactive)	> 100 µM (inactive)
Nc1nc(OCC2CCCCC2)c2nc[nH]c2n1	7.24 µM (inactive)	13.7 µM (inactive)	15.5 µM (inactive)	19.1 µM (inactive)	14.9 µM (inactive)	28.6 µM (inactive)	12.3 µM (inactive)	9.59 µM (inactive)	15.7 µM (inactive)	8.05 µM	13.9 µM (inactive)	5 µM (inactive)	10.8 µM (inactive)	13.4 µM (inactive)	5.73 µM (inactive)	26.2 µM (inactive)	17.3 µM (inactive)	9.1 µM (inactive)	8.39 µM (inactive)	19.4 µM (inactive)

Source: ChEMBL document CHEMBL1201862, “PubChem BioAssay data set” (2004)
